Reference: article PMC8552601, “Entamoeba Chitinase is Required for Mature Round Cyst Formation” (Microbiology Spectrum, 2021)

Columns and labels:
Format in all cases: biochemical
[1] = target: T1, Entamoeba invadens chitinase 1 (rEiCht1) (Entamoeba invadens, UniProt A0A0A1U6V8); experiment: 4-MU release by purified recombinant enzyme, specific activity
T1 construct: gene EIN_404540

[2] = target: T2, Entamoeba invadens chitinase 4 (rEiCht4) (Entamoeba invadens, UniProt A0A0A1TXF4); experiment: as above
T2 construct: gene EIN_136020
T2 sequence (A0A0A1TXF4 entry or part of it): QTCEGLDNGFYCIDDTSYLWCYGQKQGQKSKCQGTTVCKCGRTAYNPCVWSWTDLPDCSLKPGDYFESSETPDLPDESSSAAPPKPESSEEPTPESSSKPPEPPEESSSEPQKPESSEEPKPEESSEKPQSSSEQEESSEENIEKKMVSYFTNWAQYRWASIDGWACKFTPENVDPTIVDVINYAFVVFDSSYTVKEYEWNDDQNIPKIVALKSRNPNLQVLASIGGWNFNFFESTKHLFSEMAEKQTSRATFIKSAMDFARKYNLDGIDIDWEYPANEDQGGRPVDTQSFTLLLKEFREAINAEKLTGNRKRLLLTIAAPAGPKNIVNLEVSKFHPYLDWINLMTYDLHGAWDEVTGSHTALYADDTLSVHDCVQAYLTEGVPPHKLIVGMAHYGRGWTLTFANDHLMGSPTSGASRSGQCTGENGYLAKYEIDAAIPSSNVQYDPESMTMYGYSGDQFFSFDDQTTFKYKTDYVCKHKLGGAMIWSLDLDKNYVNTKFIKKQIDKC

[3] = target: T1, Entamoeba invadens chitinase 1 (rEiCht1); experiment: fluorogenic 4MU-(GlcNAc)[…] hydrolysis assay with purified recombinant enzyme
[4] = target: T2, Entamoeba invadens chitinase 4 (rEiCht4); experiment: as above

T1 sequence (A0A0A1U6V8 entry or part of it): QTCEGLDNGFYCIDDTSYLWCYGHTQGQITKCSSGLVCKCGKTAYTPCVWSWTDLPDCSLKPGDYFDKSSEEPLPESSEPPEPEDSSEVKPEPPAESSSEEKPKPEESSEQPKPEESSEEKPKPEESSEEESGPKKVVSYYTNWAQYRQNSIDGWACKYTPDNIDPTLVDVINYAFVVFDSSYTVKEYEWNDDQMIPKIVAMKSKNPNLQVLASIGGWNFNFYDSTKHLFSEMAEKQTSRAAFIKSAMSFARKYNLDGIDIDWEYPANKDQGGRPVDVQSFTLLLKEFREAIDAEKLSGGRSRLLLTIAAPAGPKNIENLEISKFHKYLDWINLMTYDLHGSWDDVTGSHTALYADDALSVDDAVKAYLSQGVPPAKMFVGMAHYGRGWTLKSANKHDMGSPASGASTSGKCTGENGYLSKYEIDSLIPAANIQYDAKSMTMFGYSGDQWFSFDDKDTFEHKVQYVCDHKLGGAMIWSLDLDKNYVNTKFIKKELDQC

SMILES | 4-MU release by purified recombinant enzyme, specific activity [1] [μmol/min/mg protein] | 4-MU release by purified recombinant enzyme, specific activity [2] [μmol/min/mg protein] | IC50 [3] [µM] | IC50 [4] [µM]
CC(=O)N[C@H]1[C@H](Oc2ccc3c(C)cc(=O)oc3c2)O[C@H](CO)[C@@H](O[C@@H]2O[C@H](CO)[C@@H](O[C@@H]3O[C@H](CO)[C@@H](O)[C@H](O)[C@H]3NC(C)=O)[C@H](O)[C@H]2NC(C)=O)[C@@H]1O [4-methylumbelliferyl β-D-N,N′,N′′-triacetylchitotrioside] | 11.7 ± 5.3 | 6.3 ± 1.1 |  | 
Cc1nn(C)c(C)c1NS(=O)(=O)c1c(Cl)cc(-c2ccnc(N3CCNCC3)c2)cc1Cl [D-B-09, 2,6-dichloro-4-[2-(1-piperazinyl)-4-pyridinyl]-N-(1,3,5-trimethyl-1H-pyrazol-4-yl)-benzenesulfonamide] |  |  | 0.8 ± 0.2 | 2.5 ± 1.3
